We go through 15 compounds from PubChem BioAssay AID328 (DTP/NCI, 2004).

Where “and” joins values, the source holds several entries; their conditions need not be identical. Equal values may be shown once. Toxic doses and inconclusive results are not listed.

This assay has as its system BDF1 mice, P388 leukemia ip, median survival T/C. The assay can be described thus: NCI In Vivo Anticancer Drug Screen. Data for tumor model P388 Leukemia (intraperitoneal) in B6D2F1 (BDF1) mice. The conditions noted are these: endpoint: median survival time, higher = longer survival. In short, it runs like this:
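Compound-treated tumour-bearing mice were compared with vehicle-treated controls. Survival was recorded, and the value is the treated-group measurement divided by the control-group measurement (T/C).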

The mark [1] stands for this setting: dose: 50.0 mg/kg/injection, schedule: Q04DX003 (ip), vehicle: Klucel (hydroxypropylcellulose) (HPC).
Setting [2] is: dose: 50.0 mg/kg/injection, schedule: Q01DX009 (ip), vehicle: saline.
[3] abbreviates: dose: 100.0 mg/kg/injection, schedule: Q04DX003 (ip), vehicle: saline.
The mark [4] stands for this setting: dose: 200.0 mg/kg/injection, schedule: Q04DX003 (ip), vehicle: saline.
The mark [5] stands for this setting: dose: 25.0 mg/kg/injection, schedule: Q01DX009 (ip), vehicle: saline.
[6] abbreviates: dose: 50.0 mg/kg/injection, schedule: Q01DX009 (ip), vehicle: other.
Setting [7] is: dose: 100.0 mg/kg/injection, schedule: Q01DX009 (ip), vehicle: other.
Where [8] appears, read: dose: 200.0 mg/kg/injection, schedule: Q01DX009 (ip), vehicle: other.

Regarding `CCN(CC)Cc1c(O)ccc2c3c(c(=O)oc12)CCCC3`, the T/C reads like this: (dose: 1.0 mg/kg/injection, schedule: Q01DX005 (ip), vehicle: saline) 112 % of control; (dose: 2.0 mg/kg/injection, schedule: Q01DX005 (ip), vehicle: saline) 106 % of control; (dose: 4.0 mg/kg/injection, schedule: Q01DX005 (ip), vehicle: saline) 112 % of control; (dose: 8.0 mg/kg/injection, schedule: Q01DX005 (ip), vehicle: saline) 104 % of control; (dose: 16.0 mg/kg/injection, schedule: Q01DX005 (ip), vehicle: saline) 98 % of control; (dose: 32.0 mg/kg/injection, schedule: Q01DX005 (ip), vehicle: saline) 102 % of control. Also, the T/C (dose: 64.0 mg/kg/injection, schedule: Q01DX005 (ip), vehicle: saline) is 96 % of control.
In the case of `CCOC(=O)NC(=S)n1ncnc1N`, the T/C is, setting by setting: (dose: 8.75 mg/kg/injection, schedule: Q01DX009 (ip), vehicle: saline) 95 % of control; (dose: 12.5 mg/kg/injection, schedule: Q04DX003 (ip), vehicle: Klucel (hydroxypropylcellulose) (HPC)) 110 % of control; (dose: 17.5 mg/kg/injection, schedule: Q01DX009 (ip), vehicle: saline) 105 % of control; (dose: 25.0 mg/kg/injection, schedule: Q04DX003 (ip), vehicle: Klucel (hydroxypropylcellulose) (HPC)) 100 % of control; (dose: 35.0 mg/kg/injection, schedule: Q01DX009 (ip), vehicle: saline) 90 % of control; under setting [1], 100 % of control.
As to `COc1cc2c(c(OC)c1OC)-c1ccc(OC)c(=O)cc1[C@@H](NC(C)=O)CC2`, the T/C by setting is: (dose: 0.04 mg/kg/injection, schedule: Q01DX010 (ip), vehicle: saline) 122 % of control; (dose: 0.13 mg/kg/injection, schedule: Q01DX009 (ip), vehicle: water) 171 % of control; (dose: 0.16 mg/kg/injection, schedule: Q01DX010 (ip), vehicle: saline) 181 % of control; (dose: 0.25 mg/kg/injection, schedule: Q01DX009 (ip), vehicle: water) 173 % of control; (dose: 0.32 mg/kg/injection, schedule: Q01DX010 (ip), vehicle: saline) 154 % of control and 181 % of control; (dose: 0.64 mg/kg/injection, schedule: Q01DX010 (ip), vehicle: saline) 163 % of control. In addition, the T/C is 153 % of control (dose: 250.0 micrograms/kg/injection, schedule: Q01DX009 (ip), vehicle: saline); 235 % of control (dose: 500.0 micrograms/kg/injection, schedule: Q01DX009 (ip), vehicle: saline); 222 % of control (dose: 1000.0 micrograms/kg/injection, schedule: Q01DX009 (ip), vehicle: saline).
With `O=C1c2cccnc2C(=O)N1Cc1ccccc1`, the T/C runs as follows: (dose: 9.38 mg/kg/injection, schedule: Q01DX009 (ip), vehicle: saline with Tween-80) 109 % of control; (dose: 18.7 mg/kg/injection, schedule: Q01DX009 (ip), vehicle: saline with Tween-80) 95 % of control; (dose: 37.5 mg/kg/injection, schedule: Q01DX009 (ip), vehicle: saline with Tween-80) 100 % of control.
As to `NNC(=O)c1ccncc1`, the T/C was 110 % of control under setting [2]; 105 % of control (dose: 50.0 mg/kg/injection, schedule: Q04DX003 (ip), vehicle: saline); 105 % of control under setting [3]; 100 % of control under setting [4].
For `O[C@]12CC=CC[C@]1(O)CC(N1CCCCC1)C2`, the T/C was 99 % of control under setting [5]; 124 % of control under setting [2]; 92 % of control (dose: 100.0 mg/kg/injection, schedule: Q01DX009 (ip), vehicle: saline).
With `CCOC(=O)C1CC=CCC1C(=O)OCC` (stereo not given), the T/C by setting is: under setting [3], 118 % of control; under setting [4], 118 % of control; (dose: 400.0 mg/kg/injection, schedule: Q04DX003 (ip), vehicle: saline) 109 % of control.
On to `Cc1cc2[nH]c(=O)c(=O)[nH]c2cc1C`, for which the T/C is, setting by setting: (dose: 10.0 mg/kg/injection, schedule: Q01DX009 (ip), vehicle: Klucel (hydroxypropylcellulose) (HPC)) 109 % of control; (dose: 20.0 mg/kg/injection, schedule: Q01DX009 (ip), vehicle: Klucel (hydroxypropylcellulose) (HPC)) 109 % of control; (dose: 40.0 mg/kg/injection, schedule: Q01DX009 (ip), vehicle: Klucel (hydroxypropylcellulose) (HPC)) 100 % of control; (dose: 75.0 mg/kg/injection, schedule: Q01DX009 (ip), vehicle: Klucel (hydroxypropylcellulose) (HPC)) 86 % of control.
Consider `COc1cc2c3cc1Oc1c(OC)c(OC)cc4c1C(Cc1ccc(O)c(c1)-c1cc(ccc1OC)CC3N(C)CC2)N(C)CC4` (stereo not given), for which the T/C (dose: 1.56 mg/kg/injection, schedule: Q01DX009 (ip), vehicle: Klucel (hydroxypropylcellulose) (HPC)) is 91 % of control; the T/C (dose: 3.13 mg/kg/injection, schedule: Q01DX009 (ip), vehicle: Klucel (hydroxypropylcellulose) (HPC)) was 87 % of control; the T/C (dose: 6.25 mg/kg/injection, schedule: Q01DX009 (ip), vehicle: Klucel (hydroxypropylcellulose) (HPC)) was 87 % of control; the T/C (dose: 50.0 mg/kg/injection, schedule: Q01DX009 (ip), vehicle: carboxymethylcellulose (CMC)) is 88 % of control.
`COc1ccc(OC)c(/C=N/N=C/c2cc(OC)ccc2OC)c1`: the T/C runs as follows: (dose: 100.0 mg/kg/injection, schedule: Q01DX001 (ip), vehicle: saline with Tween-80) 104 % of control; (dose: 200.0 mg/kg/injection, schedule: Q01DX001 (ip), vehicle: saline with Tween-80) 100 % of control; (dose: 400.0 mg/kg/injection, schedule: Q01DX001 (ip), vehicle: saline with Tween-80) 104 % of control.
Take `CSC(c1ccccc1)=[N+]1CCOCC1`: the T/C under setting [6] was 100 % of control; the T/C under setting [1] was 100 % of control; the T/C under setting [7] was 118 % of control; the T/C (dose: 100.0 mg/kg/injection, schedule: Q04DX003 (ip), vehicle: Klucel (hydroxypropylcellulose) (HPC)) was 100 % of control; the T/C under setting [8] was 113 % of control; the T/C (dose: 200.0 mg/kg/injection, schedule: Q04DX003 (ip), vehicle: Klucel (hydroxypropylcellulose) (HPC)) is 90 % of control.
Turning to `O=C(/C=C/c1cccc(Br)c1)c1ccc(Cl)cc1`, the T/C runs as follows: under setting [6], 120 % of control; (dose: 50.0 mg/kg/injection, schedule: Q04DX003 (ip), vehicle: other) 100 % of control; under setting [7], 120 % of control; (dose: 100.0 mg/kg/injection, schedule: Q04DX003 (ip), vehicle: other) 100 % of control; (dose: 132.0 mg/kg/injection, schedule: Q01DX009 (ip), vehicle: other) 100 % of control; under setting [8], 104 % of control. Besides, the T/C runs as follows: (dose: 200.0 mg/kg/injection, schedule: Q04DX003 (ip), vehicle: other) 90 % of control; (dose: 300.0 mg/kg/injection, schedule: Q01DX009 (ip), vehicle: other) 104 % of control.
Take `CSC1(CC(=O)N2CCCCC2)C(=O)Nc2ccccc21` (stereo not given): the T/C (dose: 50.0 mg/kg/injection, schedule: Q04DX002 (ip), vehicle: saline with Tween-80) was 95 % of control; the T/C (dose: 100.0 mg/kg/injection, schedule: Q04DX002 (ip), vehicle: saline with Tween-80) was 101 % of control; the T/C (dose: 200.0 mg/kg/injection, schedule: Q04DX002 (ip), vehicle: saline with Tween-80) was 95 % of control.
On to `Nc1ccc(CCCCc2ccccc2)cc1`, for which the T/C (dose: 7.03 mg/kg/injection, schedule: Q04DX003 (ip), vehicle: saline) is 104 % of control; the T/C (dose: 12.5 mg/kg/injection, schedule: Q01DX009 (ip), vehicle: saline) is 109 % of control; the T/C (dose: 14.06 mg/kg/injection, schedule: Q04DX003 (ip), vehicle: saline) was 113 % of control; the T/C under setting [5] is 113 % of control; the T/C (dose: 28.12 mg/kg/injection, schedule: Q04DX003 (ip), vehicle: saline) was 109 % of control; the T/C under setting [2] is 113 % of control. Also, the T/C (dose: 56.25 mg/kg/injection, schedule: Q04DX003 (ip), vehicle: saline) is 116 % of control and the T/C (dose: 75.0 mg/kg/injection, schedule: Q01DX009 (ip), vehicle: saline) is 109 % of control.
For `Clc1ccc(CN2COc3c(ccc4cccnc34)C2)cc1Cl`, the T/C is, setting by setting: (dose: 50.0 mg/kg/injection, schedule: Q04DX003 (ip), vehicle: saline with Tween-80) 104 % of control; (dose: 100.0 mg/kg/injection, schedule: Q04DX003 (ip), vehicle: saline with Tween-80) 104 % of control and 118 % of control; (dose: 200.0 mg/kg/injection, schedule: Q04DX003 (ip), vehicle: saline with Tween-80) 109 % of control; (dose: 400.0 mg/kg/injection, schedule: Q04DX003 (ip), vehicle: saline with Tween-80) 120 % of control.
